In US9109041B2, “Analog compounds of analgesic peptides derived from the venom of crotalus durissus terrificus snakes, their uses, compositions, methods of preparation and purification” (priority 2004, dated 2015):

System: allodynia induced by constriction of the sciatic nerve
Assay: allodynia induced by chronic constriction of the sciatic nerve (von Frey hairs)
Assay type: in vivo, rat
Conditions: for paw withdrawal threshold (allodynia), FM 24 h: day 14, 24 h after peptide; for paw withdrawal threshold (allodynia), FM 48 h: day 14, 48 h after peptide; for paw withdrawal threshold (allodynia), FM 72 h: day 14, 72 h after peptide; for paw withdrawal threshold (allodynia), FM 96 h: day 14, 96 h after peptide
Protocol: For the induction of neuropathic pain, surgery was performed in the sciatic nerve, in accordance with the method described by Bennett, G. J and Xie, Y. K. (Pain, 33:87-107, 1988). The animals were anesthetized with halothane. The sciatic nerve was exposed in the middle region of the thigh, moving away the femoral biceps muscle. Close to the trifurcation of the sciatic nerve, 7 mm of distance from the trifurcation, 4 loose ligations were performed (chromed catgut 4-0) around it, distant from each other in approximately 1 mm. The bindings were performed along the nerve, up to 4-5 mm from the initial point. The incision was sutured in layers, using silk suture thread number 4-0.
Allodynia was evaluated for quantitative testing, in response to tactile stimulus applied to the paws of the rat, according to the method described by Chaplan el al. (1994), modified. In this test, the rats were placed, individually, in plastic cages, with meshed wire at the bottom, to allow access to the paws of these animals. Briefly, a logarithmic series of 10 calibrated Semmes-Weinstein monofilaments (von Frey hairs, Aesthesiometer Semmer-Weinstein, Stoelting Co., E.U.A) was applied to the right hind paw to determine the stimulus intensity threshold stiffness required to elicit a paw withdrawal response. Log stiffness of the hairs is determined by log 10 (mg×10) having the following values (the value in grams is between parenthesis): 3.61 (0.407 g); 3.84 (0.692 g); 4.08 (1.202 g); 4.17 (1.479 g); 4.31 (2.041 g); 4.56 (3.630 g); 4.74 (5.495 g); 4.93 (8.511 g); 5.07 (11.749 g) and 5.18 (15.136 g). It is important to point out that the filaments with weight greater than 15.136 g were not employed in the studies of allodynia.
The filaments were applied, one by one, perpendicularly, under the plantar area of both hind paws and maintained for a period of 8 seconds. The filament capable of eliciting the withdrawal of the paw, two consecutive times, was considered as the force in grams necessary to elicit the response (100% of response). In the absence of a response to the greater stimulus (15.135 g), this filament was considered as cut value.
The behavioral responses were used to calculate the 50% paw withdrawal threshold (absolute threshold), by fitting a gaussian integral psychometric function, using a maximum-likelihood fitting method. This fitting method allows parametric analyses.
The period of the application of the test and the treatments were the same as those used for determination of hyperalgesia (Table 12).
The results were analyzed by comparing the means of the basal and initial measurements or, when determined, by comparing the means obtained in the different experimental groups.
For this purpose, the animals were treated with CTOP, a specific μ receptor antagonist (20 μg/paw), nor-BNI, a specific κ receptor antagonist (50 μg/paw) or with ICI 174,864, a specific δ receptor antagonist (10 μg/paw). The antagonists were injected, by intraplantar route. The peptide was administered in the dose of 5 μg/kg, orally, immediately before the injection of the opioid antagonists.
The results were analyzed comparing the mean values of the basal and initial measurements, or of the initial and final measurements or, when determined, by comparing the mean values obtained in the different experimental groups (Tables 15 and 16).

Xaa-Phe-Ser-Pro-Glu-Asn-Cys-Gln-Gly-Glu-Ser-Gln-Pro-Cys [SEQ ID NO: 2]
paw withdrawal threshold (allodynia), FM 1 h (0.2 μg/kg p.o., day 14, 1 h after peptide): 4.41 ± 0.00 log 10 (mg × 10) | paw withdrawal threshold (allodynia), FM 3 h (0.2 μg/kg p.o., day 14, 3 h after peptide): 4.41 ± 0.00 log 10 (mg × 10) | paw withdrawal threshold (allodynia), FM 24 h (0.2 μg/kg p.o.): 4.41 ± 0.00 log 10 (mg × 10) | paw withdrawal threshold (allodynia), FM 48 h (0.2 μg/kg p.o.): 4.41 ± 0.00 log 10 (mg × 10) | paw withdrawal threshold (allodynia), FM 72 h (0.2 μg/kg p.o.): 4.41 ± 0.00 log 10 (mg × 10) | paw withdrawal threshold (allodynia), FM 96 h (0.2 μg/kg p.o.): 4.22 ± 0.00 log 10 (mg × 10) | paw withdrawal threshold (allodynia), IM (0.2 μg/kg p.o., day 14 after surgery, before peptide): 4.22 ± 0.00 log 10 (mg × 10) | paw withdrawal threshold (allodynia), BM (1 μg/kg p.o., before surgery): 5.06 ± 0.02 log 10 (mg × 10) | paw withdrawal threshold (allodynia), FM 1 h (1 μg/kg p.o., day 14, 1 h after peptide): 4.62 ± 0.00 log 10 (mg × 10) | paw withdrawal threshold (allodynia), FM 3 h (1 μg/kg p.o., day 14, 3 h after peptide): 4.62 ± 0.00 log 10 (mg × 10) | paw withdrawal threshold (allodynia), FM 24 h (1 μg/kg p.o.): 4.62 ± 0.00 log 10 (mg × 10) | paw withdrawal threshold (allodynia), FM 48 h (1 μg/kg p.o.): 4.62 ± 0.00 log 10 (mg × 10) | paw withdrawal threshold (allodynia), FM 72 h (1 μg/kg p.o.): 4.62 ± 0.00 log 10 (mg × 10) | paw withdrawal threshold (allodynia), FM 96 h (1 μg/kg p.o.): 4.22 ± 0.00 log 10 (mg × 10) | paw withdrawal threshold (allodynia), IM (1 μg/kg p.o., day 14 after surgery, before peptide): 4.23 ± 0.01 log 10 (mg × 10) | paw withdrawal threshold (allodynia), FM 1 h (5 μg/kg p.o. + CTOP 20 μg/paw i.pl., 1 h after peptide): 5.00 ± 0.05 log 10 (mg × 10) | paw withdrawal threshold (allodynia), FM 3 h (5 μg/kg p.o. + CTOP 20 μg/paw i.pl., 3 h after peptide): 4.99 ± 0.02 log 10 (mg × 10) | paw withdrawal threshold (allodynia), BM (5 μg/kg p.o. + CTOP 20 μg/paw i.pl., before surgery): 4.99 ± 0.02 log 10 (mg × 10) | paw withdrawal threshold (allodynia), IM (5 μg/kg p.o. + CTOP 20 μg/paw i.pl., day 14, before peptide): 4.29 ± 0.04 log 10 (mg × 10) | paw withdrawal threshold (allodynia), FM 1 h (5 μg/kg p.o. + ICI 174,864 10 μg/paw i.pl., 1 h after peptide): 4.22 ± 0 log 10 (mg × 10) | paw withdrawal threshold (allodynia), FM 3 h (5 μg/kg p.o. + ICI 174,864 10 μg/paw i.pl., 3 h after peptide): 4.22 ± 0 log 10 (mg × 10) | paw withdrawal threshold (allodynia), BM (5 μg/kg p.o. + ICI 174,864 10 μg/paw i.pl., before surgery): 4.96 ± 0.04 log 10 (mg × 10) | paw withdrawal threshold (allodynia), IM (5 μg/kg p.o. + ICI 174,864 10 μg/paw i.pl., day 14, before peptide): 4.29 ± 0.04 log 10 (mg × 10) | paw withdrawal threshold (allodynia), FM 1 h (5 μg/kg p.o. + nor-BNI 50 μg/paw i.pl., 1 h after peptide): 4.62 ± 0 log 10 (mg × 10) | paw withdrawal threshold (allodynia), FM 3 h (5 μg/kg p.o. + nor-BNI 50 μg/paw i.pl., 3 h after peptide): 4.62 ± 0 log 10 (mg × 10) | paw withdrawal threshold (allodynia), BM (5 μg/kg p.o. + nor-BNI 50 μg/paw i.pl., before surgery): 5.03 ± 0.02 log 10 (mg × 10) | paw withdrawal threshold (allodynia), IM (5 μg/kg p.o. + nor-BNI 50 μg/paw i.pl., day 14, before peptide): 4.25 ± 0.03 log 10 (mg × 10) | paw withdrawal threshold (allodynia), FM 1 h (5 μg/kg p.o., 1 h after peptide (Table 16)): 5.08 ± 0.01 log 10 (mg × 10) | paw withdrawal threshold (allodynia), FM 3 h (5 μg/kg p.o., 3 h after peptide (Table 16)): 5.09 ± 0 log 10 (mg × 10) | paw withdrawal threshold (allodynia), BM (5 μg/kg p.o., before surgery (Table 12)): 4.99 ± 0.03 log 10 (mg × 10) | paw withdrawal threshold (allodynia), BM (5 μg/kg p.o., before surgery (Table 16)): 5.00 ± 0.03 log 10 (mg × 10) | paw withdrawal threshold (allodynia), FM 1 h (5 μg/kg p.o., day 14, 1 h after peptide (Table 12)): 4.94 ± 0.05 log 10 (mg × 10) | paw withdrawal threshold (allodynia), FM 3 h (5 μg/kg p.o., day 14, 3 h after peptide (Table 12)): 4.98 ± 0.04 log 10 (mg × 10) | paw withdrawal threshold (allodynia), FM 24 h (5 μg/kg p.o.): 4.97 ± 0.03 log 10 (mg × 10) | paw withdrawal threshold (allodynia), FM 48 h (5 μg/kg p.o.): 4.93 ± 0.04 log 10 (mg × 10) | paw withdrawal threshold (allodynia), FM 72 h (5 μg/kg p.o.): 4.85 ± 0.02 log 10 (mg × 10)
